Data: PubChem BioAssay AID248 (DTP/NCI, 2004)
Toxic doses and inconclusive results are not listed. Rule as the data show it: active = T/C of 150% or more; inactive = T/C below 125%.

Test system: L1210 leukemia ip in BDF1 mice, survival T/C
Test: NCI In Vivo Anticancer Drug Screen. Data for tumor model L1210 Leukemia (intraperitoneal) in B6D2F1 (BDF1) mice
Conditions: endpoint: mean survival time, higher = longer survival
Summary of the method: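 Value reflects the ratio of survival in compound-treated mice to survival in vehicle-treated controls, with both groups carrying the same transplanted tumor.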

[1] = dose: 75.0 mg/kg/injection, schedule: Q01DX001 (ip), vehicle: other
[2] = dose: 200.0 mg/kg/injection, schedule: Q04DX003 (ip), vehicle: Klucel (hydroxypropylcellulose) (HPC)
[3] = dose: 400.0 mg/kg/injection, schedule: Q04DX003 (ip), vehicle: Klucel (hydroxypropylcellulose) (HPC)
[4] = dose: 100.0 mg/kg/injection, schedule: Q01DX001 (ip), vehicle: Klucel (hydroxypropylcellulose) (HPC)
[5] = dose: 200.0 mg/kg/injection, schedule: Q01DX001 (ip), vehicle: Klucel (hydroxypropylcellulose) (HPC)
[6] = dose: 400.0 mg/kg/injection, schedule: Q01DX001 (ip), vehicle: Klucel (hydroxypropylcellulose) (HPC)
[7] = dose: 50.0 mg/kg/injection, schedule: Q01DX009 (ip), vehicle: saline
[8] = dose: 100.0 mg/kg/injection, schedule: Q01DX009 (ip), vehicle: saline
[9] = dose: 100.0 mg/kg/injection, schedule: Q04DX003 (ip), vehicle: saline
[10] = dose: 200.0 mg/kg/injection, schedule: Q04DX003 (ip), vehicle: saline
[11] = dose: 75.0 mg/kg/injection, schedule: Q01DX001 (ip), vehicle: saline
[12] = dose: 150.0 mg/kg/injection, schedule: Q01DX001 (ip), vehicle: saline
[13] = dose: 300.0 mg/kg/injection, schedule: Q01DX001 (ip), vehicle: saline

Measured: T/C

NC1C2CC3CC(C2)CC1C3 (stereo unspecified)
inactive: dose: 5.0 mg/kg/injection, schedule: Q01DX001 (ip), vehicle: saline 102 % of control | dose: 10.0 mg/kg/injection, schedule: Q01DX001 (ip), vehicle: saline 98 % of control | dose: 20.0 mg/kg/injection, schedule: Q01DX001 (ip), vehicle: saline 107 % of control | dose: 40.0 mg/kg/injection, schedule: Q01DX001 (ip), vehicle: saline 96 % of control | [1] 93 % of control | dose: 80.0 mg/kg/injection, schedule: Q01DX001 (ip), vehicle: saline 96 % of control

Cc1ccc(S/C(=C/c2ccccc2)C(N)=O)cc1
inactive: [2] 93 % of control | [3] 95 % of control

CC12CCC(O)CC1CCC1C3CC/C(=C\c4ccco4)C(=O)C3(CCC#N)CCC12 (stereo unspecified)
inactive: dose: 100.0 mg/kg/injection, schedule: Q01DX001 (sc), vehicle: steriod suspending solution 108 % of control | dose: 200.0 mg/kg/injection, schedule: Q01DX001 (sc), vehicle: steriod suspending solution 106 % of control | dose: 400.0 mg/kg/injection, schedule: Q01DX001 (sc), vehicle: steriod suspending solution 106 % of control

O=C(c1ccccc1)C12CC3CC(CC(C3)C1)C2
inactive: dose: 75.0 mg/kg/injection, schedule: Q04DX003 (ip), vehicle: Klucel (hydroxypropylcellulose) (HPC) 93 % of control | [4] 96 % of control | dose: 150.0 mg/kg/injection, schedule: Q04DX003 (ip), vehicle: Klucel (hydroxypropylcellulose) (HPC) 93 % of control | [5] 100 % of control | dose: 300.0 mg/kg/injection, schedule: Q04DX003 (ip), vehicle: Klucel (hydroxypropylcellulose) (HPC) 106 % of control | [6] 105 % of control

CCOC(=O)C[P+](c1ccc(C)cc1)(c1ccc(C)cc1)c1ccc(C)cc1
inactive: dose: 15.0 mg/kg/injection, schedule: Q01DX001 (ip), vehicle: carboxymethylcellulose (CMC) 86 % of control

CCOC(=O)OC1CC/C(=N\N=C(N)N)C1 (stereo unspecified)
inactive: dose: 15.0 mg/kg/injection, schedule: Q01DX Z (ip), vehicle: methylcellulose (MC) 110 % of control | dose: 30.0 mg/kg/injection, schedule: Q01DX Z (ip), vehicle: methylcellulose (MC) 96 % of control | dose: 120.0 mg/kg/injection, schedule: Q01DX Z (ip), vehicle: methylcellulose (MC) 92 % of control

Cc1ccc(N2C(=O)CCC2=O)c(C)c1
inactive: dose: 50.0 mg/kg/injection, schedule: Q01DX001 (ip), vehicle: carboxymethylcellulose (CMC) 104 % of control | dose: 100.0 mg/kg/injection, schedule: Q01DX001 (ip), vehicle: carboxymethylcellulose (CMC) 98 % of control | dose: 200.0 mg/kg/injection, schedule: Q01DX001 (ip), vehicle: carboxymethylcellulose (CMC) 102 % of control | dose: 400.0 mg/kg/injection, schedule: Q01DX001 (ip), vehicle: carboxymethylcellulose (CMC) 98 % of control

Cc1cccc(CN)n1
inactive: [7] 98 % of control | [8] 98 % of control | [9] 104 % of control | dose: 200.0 mg/kg/injection, schedule: Q01DX009 (ip), vehicle: saline 97 % of control | [10] 104 % of control

O=C(Sc1ccccc1)C(Cl)(Cl)Cl
inactive: dose: 25.0 mg/kg/injection, schedule: Q01DX009 (ip), vehicle: saline 103 % of control | [7] 97 % of control | dose: 50.0 mg/kg/injection, schedule: Q04DX003 (ip), vehicle: saline 97 % of control | dose: 100.0 mg/kg/injection, schedule: Q01DX001 (ip), vehicle: acetone 101 % of control | [8] 95 % of control | [9] 94 % of control | dose: 200.0 mg/kg/injection, schedule: Q01DX001 (ip), vehicle: acetone 95 % of control

O=C(c1ccc(Cl)cc1)c1nonc1C(=O)c1ccc(Cl)cc1
inactive: [4] 100 % of control | dose: 100.0 mg/kg/injection, schedule: Q01DX009 (ip), vehicle: Klucel (hydroxypropylcellulose) (HPC) 98 % of control | [5] 96 % of control | dose: 200.0 mg/kg/injection, schedule: Q01DX009 (ip), vehicle: Klucel (hydroxypropylcellulose) (HPC) 95 % of control | [6] 100 % of control | dose: 400.0 mg/kg/injection, schedule: Q01DX009 (ip), vehicle: Klucel (hydroxypropylcellulose) (HPC) 106 % of control

O=C(O)c1ccccc1C(=O)Nc1ccccc1[N+](=O)[O-]
inactive: dose: 100.0 mg/kg/injection, schedule: Q01DX001 (ip), vehicle: saline with Tween-80 91 % of control | dose: 200.0 mg/kg/injection, schedule: Q01DX001 (ip), vehicle: saline with Tween-80 91 % of control | dose: 400.0 mg/kg/injection, schedule: Q01DX001 (ip), vehicle: saline with Tween-80 91 % of control

COc1cc(O)c(/C=N\N=C\c2ccco2)c(OC)c1
inactive: [11] 90 % of control | [12] 90 % of control | [13] 86 % of control

COc1ccccc1-n1c(O)c(N=Nc2ccccc2C)c(=O)n(-c2ccccc2OC)c1=S
inactive: dose: 100.0 mg/kg/injection, schedule: Q04DX003 (ip), vehicle: Klucel (hydroxypropylcellulose) (HPC) 96 % of control | [2] 94 % of control | [3] 100 % of control

COc1cc2c(cc1O)C(CCc1cc(OC)c(OC)c(OC)c1)=[N+](C)CC2
inactive: dose: 25.0 mg/kg/injection, schedule: Q04DX002 (ip), vehicle: Klucel (hydroxypropylcellulose) (HPC) 101 % of control | dose: 50.0 mg/kg/injection, schedule: Q04DX002 (ip), vehicle: Klucel (hydroxypropylcellulose) (HPC) 101 % of control | dose: 100.0 mg/kg/injection, schedule: Q04DX002 (ip), vehicle: Klucel (hydroxypropylcellulose) (HPC) 105 % of control

O=C(O)c1cccc(C2CC2)c1
inactive: dose: 100.0 mg/kg/injection, schedule: Q01DX001 (ip), vehicle: other 95 % of control | dose: 100.0 mg/kg/injection, schedule: Q04DX003 (ip), vehicle: other 97 % of control | dose: 200.0 mg/kg/injection, schedule: Q01DX001 (ip), vehicle: other 97 % of control | dose: 200.0 mg/kg/injection, schedule: Q04DX003 (ip), vehicle: other 97 % of control | dose: 400.0 mg/kg/injection, schedule: Q01DX001 (ip), vehicle: other 98 % of control | dose: 400.0 mg/kg/injection, schedule: Q04DX003 (ip), vehicle: other 97 % of control

CN=C(Nc1ccc(N(C)C)cc1)SC
inactive: [1] 105 % of control | dose: 150.0 mg/kg/injection, schedule: Q01DX001 (ip), vehicle: other 103 % of control

CCCCCC(C[N+](C)(C)C)C(O)/C=C\c1ccccc1 (stereo unspecified)
inactive: dose: 2.5 mg/kg/injection, schedule: Q01DX009 (ip), vehicle: saline 97 % of control | dose: 5.0 mg/kg/injection, schedule: Q01DX009 (ip), vehicle: saline 97 % of control | dose: 5.0 mg/kg/injection, schedule: Q04DX003 (ip), vehicle: saline 103 % of control | dose: 10.0 mg/kg/injection, schedule: Q01DX009 (ip), vehicle: saline 99 % of control | dose: 10.0 mg/kg/injection, schedule: Q04DX003 (ip), vehicle: saline 98 % of control

CC12CC3(O)CCC1CCC2C(=O)C3 (stereo unspecified)
inactive: [8] 95 % of control | [9] 93 % of control | [10] 96 % of control | dose: 400.0 mg/kg/injection, schedule: Q01DX009 (ip), vehicle: saline 96 % of control | dose: 400.0 mg/kg/injection, schedule: Q04DX003 (ip), vehicle: saline 105 % of control

Cc1ccc(C)c2c1CC(C(=O)O)CC2C (stereo unspecified)
inactive: [9] 93 % of control | [10] 110 % of control

C[n+]1c(-c2cccc3ccccc23)c2cc([N+](=O)[O-])ccc2c2ccccc21
inactive: dose: 6.25 mg/kg/injection, schedule: Q01DX009 (ip), vehicle: water 104 % of control | dose: 12.5 mg/kg/injection, schedule: Q01DX009 (ip), vehicle: water 100 % of control | dose: 12.5 mg/kg/injection, schedule: Q04DX003 (ip), vehicle: water 98 % of control | dose: 25.0 mg/kg/injection, schedule: Q04DX003 (ip), vehicle: water 105 % of control | dose: 50.0 mg/kg/injection, schedule: Q04DX003 (ip), vehicle: water 93 % of control

CC12CCC(CC1C(=O)O)C2 (stereo unspecified)
inactive: dose: 100.0 mg/kg/injection, schedule: Q04DX003 (ip), vehicle: saline with Tween-80 96 % of control | dose: 200.0 mg/kg/injection, schedule: Q04DX003 (ip), vehicle: saline with Tween-80 94 % of control | dose: 400.0 mg/kg/injection, schedule: Q04DX003 (ip), vehicle: saline with Tween-80 98 % of control

Cc1cc([N+](=O)[O-])c(P(=O)(O)O)cc1Cl
inactive: [11] 93 % of control | [12] 91 % of control | [13] 96 % of control
